The target in the test is SARS-CoV-2 3CLpro (Severe acute respiratory syndrome coronavirus 2, UniProt P0DTD1). As to the kind of experiment: biochemical. The class given is biochemical. Also noted: Replicate_1 / Replicate_2 / mean / mean (LOPAC_screen_w_protease): unit not given here.
Where [1] appears, read: LOPAC1280 primary screen with protease, 5 µM compound, mean of the two replicates.
Setting [2] is: LOPAC1280 primary screen with protease, 5 µM compound, replicate 1.
Setting [3] is: LOPAC1280 primary screen with protease, 5 µM compound, replicate 2.
[4] abbreviates: sheet LOPAC_screen_w_protease, primary screen with protease, mean of two replicates.
The mark [5] stands for this setting: sheet LOPAC_screen_w_protease, primary screen with protease, replicate 1.
[6] abbreviates: sheet LOPAC_screen_w_protease, primary screen with protease, replicate 2.
Where [7] appears, read: 4 h, sheet LOPAC_screen_w_protease, LOPAC1280 primary screen with protease, 5 µM compound, mean of the two replicates, read-out: mean.
[8] abbreviates: 4 h, sheet LOPAC_screen_w_protease, LOPAC1280 primary screen with protease, 5 µM compound, replicate 1, read-out: Replicate_1.
[9] abbreviates: 4 h, sheet LOPAC_screen_w_protease, LOPAC1280 primary screen with protease, 5 µM compound, replicate 2, read-out: Replicate_2.
[10] abbreviates: sheet LOPAC_screen_w_protease, LOPAC1280 primary screen with protease, 5 µM compound, mean of the two replicates.
The mark [11] stands for this setting: sheet LOPAC_screen_w_protease, LOPAC1280 primary screen with protease, 5 µM compound, replicate 1.
The mark [12] stands for this setting: sheet LOPAC_screen_w_protease, LOPAC1280 primary screen with protease, 5 µM compound, replicate 2.
Where [13] appears, read: 4 h, sheet LOPAC_screen_w_protease, primary screen with protease, mean of two replicates, read-out: mean.
Where [14] appears, read: 4 h, sheet LOPAC_screen_w_protease, primary screen with protease, replicate 1, read-out: Replicate_1.
The mark [15] stands for this setting: 4 h, sheet LOPAC_screen_w_protease, primary screen with protease, replicate 2, read-out: Replicate_2.
Setting [16] is: sheet LOPAC_screen_w_protease, LOPAC1280 at 5 µM, mean of two replicates.
Where [17] appears, read: sheet LOPAC_screen_w_protease, LOPAC1280 at 5 µM, replicate 1.
Setting [18] is: sheet LOPAC_screen_w_protease, LOPAC1280 at 5 µM, replicate 2.
Setting [19] is: 4 h, read-out: Replicate_1 (LOPAC_screen_w_protease).
[20] abbreviates: 4 h, read-out: Replicate_2 (LOPAC_screen_w_protease).

Structures can show the parent of a compound that is named as a salt. Where two headings read alike, the source gives them in different places.

Consider `Cl.O=S(=O)(c1cccc2c(Cl)cccc12)N1CCCNCC1` [ML-9], for which the Replicate_1 stood at 1.4227, the Replicate_2 is on record as 4.79 and the mean is on record as 3.1064.
For `CCCCCCCC/C=C\CCCCCCCC(=O)NCCc1ccc(O)c(O)c1` [N-Oleoyldopamine], the “mean (LOPAC_screen_w_protease)” value under setting [1] is 2.025. Also, the “Replicate_1 (LOPAC_screen_w_protease)” value under setting [2] is given as 0.1379. For the same compound, the “Replicate_2 (LOPAC_screen_w_protease)” value under setting [3] came to 3.912.
`N=C(N)NC(=O)c1nc(Cl)c(N2CCCCCC2)nc1N` [5-(N,N-hexamethylene)amiloride] showed a mean under setting [4] of 2.452. For the same compound, the Replicate_1 under setting [5] came to 2.2643. Further, the Replicate_2 under setting [6] was 2.64.
As to `CN1CCN(c2ccc3ccccc3n2)CC1.O=C(O)/C=C\C(=O)O.O=C(O)/C=C\C(=O)O` [Quipazine, N-methyl-, dimaleate], the mean (sheet LOPAC_screen_w_protease, LOPAC1280 primary screen at 5 µM, with protease, mean of the two replicates) was 0.6078. The compound further came in with a Replicate_1 (sheet LOPAC_screen_w_protease, LOPAC1280 primary screen at 5 µM, with protease, replicate 1) of 1.027. Besides, the Replicate_2 (sheet LOPAC_screen_w_protease, LOPAC1280 primary screen at 5 µM, with protease, replicate 2) was 0.1891.
`C=CCN1CC[C@]23c4c5ccc(O)c4O[C@H]2C(=O)CC[C@@]3(O)[C@H]1C5` [Naloxone hydrochloride]: the inhibition at 5 µM amounted to 4% (4 h, sheet LOPAC_screen_w_protease, primary screen of LOPAC1280 at 5 µM with protease, mean of the two replicates, read-out: mean); 3.91% (4 h, sheet LOPAC_screen_w_protease, primary screen of LOPAC1280 at 5 µM with protease, replicate 1, read-out: Replicate_1); 4.09% (4 h, sheet LOPAC_screen_w_protease, primary screen of LOPAC1280 at 5 µM with protease, replicate 2, read-out: Replicate_2).
Consider `O=C(Nc1ccc([N+](=O)[O-])cc1Cl)c1cc(Cl)ccc1O` [Niclosamide], for which the inhibition at 5 µM came to 5.53% (4 h, read-out: Replicate_1); 4% (4 h, read-out: Replicate_2); 4.76% (4 h, read-out: mean).
Consider `CN(C)S(=O)(=O)c1ccc2c(c1)/C(=C/c1cc3c([nH]1)CCCC3)C(=O)N2` [SU 6656], for which the inhibition at 5 µM turned out to be 4.85% under setting [7], 3.58% under setting [8] and 6.11% under setting [9].
With MDL 26,630 trihydrochloride, under setting [10], the mean was determined as 6.178. The compound also showed a Replicate_1 under setting [11] of 5.659. Under setting [12], the Replicate_2 was found to be 6.697.
Take `CC[C@@H]1C(=O)OC[C@@H]1Cc1cncn1C` [Pilocarpine nitrate]: the inhibition at 5 µM is, setting by setting: (4 h, sheet LOPAC_screen_w_protease, primary screen with protease, 5 µM, mean of two replicates, read-out: mean) -0.33%; (4 h, sheet LOPAC_screen_w_protease, primary screen with protease, 5 µM, replicate 1, read-out: Replicate_1) -0.127%; (4 h, sheet LOPAC_screen_w_protease, primary screen with protease, 5 µM, replicate 2, read-out: Replicate_2) -0.532%.
As for `O=c1cc(-c2ccc(O)c(O)c2)oc2cc(O)cc(O)c12` [luteolin, reference compound], the inhibition at 5 µM is, setting by setting: (4 h, read-out: Replicate_1) 0.919%; (4 h, read-out: Replicate_2) 1.72%; (4 h, read-out: mean) 1.32%; (read-out: inhibition of 3CLpro in the primary screen) 1.3%.
Take `CCCCCCC(C(C)O)n1cnc2c(N)ncnc21.Cl` (stereo not shown): the mean (sheet LOPAC_screen_w_protease, primary screen of LOPAC1280 at 5 µM with protease, mean of the two replicates) was found to be 3.427. Further, the Replicate_1 (sheet LOPAC_screen_w_protease, primary screen of LOPAC1280 at 5 µM with protease, replicate 1) was 4.751. The compound also displayed a Replicate_2 (sheet LOPAC_screen_w_protease, primary screen of LOPAC1280 at 5 µM with protease, replicate 2) of 2.103.
In the case of `C=CCN1CC[C@]23c4c5ccc(O)c4O[C@H]2/C(=N/NC(=O)c2ccccc2)CC[C@@]3(O)[C@H]1C5` [Naloxone benzoylhydrazone], the inhibition at 5 µM reads like this: (4 h, read-out: Replicate_1) 2.85%; (4 h, read-out: Replicate_2) 4.95%; (4 h, read-out: mean) 3.9%.
For the compound `CN(C(=O)CCCOc1ccc2[nH]c(=O)ccc2c1)C1CCCCC1` [Cilostamide], the inhibition at 5 µM under setting [13] turned out to be 2.23%, the inhibition at 5 µM under setting [14] was 1.11% and the inhibition at 5 µM under setting [15] came to 3.35%.
On to `O=C(O)[C@@H]1C[C@H](C(=O)O)N1` [cis-Azetidine-2,4-dicarboxylic acid], for which the “mean (LOPAC_screen_w_protease)” value (LOPAC1280 primary screen with protease, 5 µM compound, mean of two replicates) is 1.501. The “Replicate_1 (LOPAC_screen_w_protease)” value under setting [2] is 1.545. The “Replicate_2 (LOPAC_screen_w_protease)” value under setting [3] is 1.457.
For `C[C@H](Cc1ccc2c(c1)OC(C(=O)[O-])(C(=O)[O-])O2)NC[C@H](O)c1cccc(Cl)c1.[Na+].[Na+]` [CL 316,243], the “Replicate_1 (LOPAC_screen_w_protease)” value was determined as 0.6829, the “Replicate_2 (LOPAC_screen_w_protease)” value is given as 2.815 and the “mean (LOPAC_screen_w_protease)” value was determined as 1.749.
Consider `Nc1nc2[nH]c(=O)cnc2c(=O)[nH]1` [Isoxanthopterin], for which the inhibition at 5 µM amounted to 2.42% under setting [13], 3.73% under setting [14] and 1.11% under setting [15].
`O=C(O)c1cccnc1Nc1cccc(C(F)(F)F)c1` [Niflumic acid]: the inhibition at 5 µM runs as follows: under setting [7], 4.95%; under setting [8], 4.76%; under setting [9], 5.13%.
As for `Cl.OCc1c[nH]cn1` [4-Imidazolemethanol hydrochloride], the mean under setting [16] was determined as 1.065. Besides, the Replicate_1 under setting [17] came to 2.558. Moreover, the Replicate_2 under setting [18] is recorded as -0.4285.
In the same order, the values of `Br.CCSC(=N)N` [S-Ethylisothiourea hydrobromide] are 1.099, 2.674 and -0.4768.
For the compound `CNC(=O)[C@H]1O[C@@H](n2cnc3c(NCc4ccc(N)cc4)ncnc32)[C@H](O)[C@@H]1O` [AB-MECA], under “sheet LOPAC_screen_w_protease, primary screen with protease, compound at 5 µM, mean of two replicates”, the mean turned out to be 2.5809. The same compound showed a Replicate_1 (sheet LOPAC_screen_w_protease, primary screen with protease, compound at 5 µM, replicate 1) of 2.895. For the setting “sheet LOPAC_screen_w_protease, primary screen with protease, compound at 5 µM, replicate 2”, the Replicate_2 worked out at 2.266.
Regarding `CN(C)C(=O)Oc1cccc([N+](C)(C)C)c1` [Neostigmine bromide], the inhibition at 5 µM was determined as 5.51% under setting [7], 4.9% under setting [8] and 6.13% under setting [9].
For `O=c1[nH]c2cc(C(F)(F)F)ccc2n1-c1cc(C(F)(F)F)ccc1O` [NS-1619], the “mean (LOPAC screen with protease)” value (sheet LOPAC_screen_w_protease, primary screen at 5 µM, mean of two replicates) worked out at 7.54. For the same compound, the “Replicate_1 (LOPAC screen with protease)” value (sheet LOPAC_screen_w_protease, primary screen at 5 µM, replicate 1) is recorded as 6.544. Further, the “Replicate_2 (LOPAC screen with protease)” value (sheet LOPAC_screen_w_protease, primary screen at 5 µM, replicate 2) is 8.536.
Regarding `CO/N=C(\C(=O)N[C@@H]1C(=O)N2C(C(=O)O)=C(COC(C)=O)CS[C@H]12)c1csc(N)n1` [Cefotaxime sodium], the inhibition at 5 µM under setting [13] was determined as 2.42%, the inhibition at 5 µM under setting [14] worked out at 1.54% and the inhibition at 5 µM under setting [15] came out at 3.3%.
`CSC(N)=NCCC[C@H](N)C(=O)O` [S-Methyl-L-thiocitrulline acetate]: the inhibition at 5 µM turned out to be 2.62% (4 h, sheet LOPAC_screen_w_protease, primary screen with protease, compound at 5 µM, mean of two replicates, read-out: mean); 2.21% (4 h, sheet LOPAC_screen_w_protease, primary screen with protease, compound at 5 µM, replicate 1, read-out: Replicate_1); 3.04% (4 h, sheet LOPAC_screen_w_protease, primary screen with protease, compound at 5 µM, replicate 2, read-out: Replicate_2).
With `C[N+](C)(C)CCCCCC[N+](C)(C)C.[Cl-].[Cl-]` [Hexamethonium dichloride], the “mean (LOPAC_screen_w_protease)” value under setting [1] was determined as 1.868. In addition, the “Replicate_1 (LOPAC_screen_w_protease)” value under setting [2] is recorded as 3.928. Also, the “Replicate_2 (LOPAC_screen_w_protease)” value under setting [3] is recorded as -0.1911.
`CC(=O)O[C@H]1C[C@@]2(C)[C@@H](C[C@@H](O)[C@H]3[C@@]4(C)CC[C@@H](O)[C@@H](C)[C@@H]4CC[C@@]32C)/C1=C(\CCC=C(C)C)C(=O)[O-].[Na+]` [Fusidic acid sodium] registered a mean under setting [4] of 2.25. The Replicate_1 under setting [5] came to 4.338. In addition, under setting [6], the Replicate_2 worked out at 0.1614.
Compound `Cc1nc(N=Nc2cc(S(=O)(=O)[O-])c3cc([N+](=O)[O-])cc(S(=O)(=O)[O-])c3c2)c(COP(=O)([O-])[O-])c(C=O)c1O.[Na+].[Na+].[Na+].[Na+]` [PPNDS tetrasodium] registered a mean under setting [10] of 5.708. Moreover, the Replicate_1 under setting [11] came to 4.956. In addition, the Replicate_2 under setting [12] amounted to 6.46.
In the same order, the values of `CC(C)NCC(O)c1cc(O)cc(O)c1.CC(C)NCC(O)c1cc(O)cc(O)c1.O=S(=O)(O)O` (stereo not shown) [Metaproterenol hemisulfate] are 4.319, 2.0521 and 6.586.
As to `CC(C)(C)c1cc(C=C(C#N)C#N)cc(C(C)(C)C)c1O` [Tyrphostin A9], the “mean (LOPAC_screen_w_protease)” value is 2.02. Besides, the inhibition at 5 µM under setting [19] turned out to be 2.73%. Under setting [20], the inhibition at 5 µM amounted to 1.31%.
On the same counts, the results for `NC(=O)N1c2ccccc2C=Cc2ccccc21` [Carbamazepine] are 1.395, 1.4% and 1.39%.

Values taken from PMC7587356, “High-Throughput Screening for Inhibitors of the SARS-CoV-2 Protease Using a FRET-Biosensor” (Molecules, 2020).
